Experimental data reported in patent US20070128217A1 (priority 2003, published 2007).

Columns and labels:
[1] = tested on: control sera (pooled serum of ten healthy LUMC hospital workers; commercial negative donor pooled serum from the Dutch bloodbank); format: binding, human; set-up: Binding of Control serum LUMC to linear peptides / Binding of Control serum Blood-bank to linear peptides / Binding of Control serum LUMC to looped peptides / Binding of Control Serum Blood-Bank to Looped peptides / Binding of Control serum LUMC to linear peptides of the protein M of SARS-CoV Urbani / Binding of Control serum Blood-bank to linear peptides of the protein M of SARS-CoV Urbani / Binding of Control serum LUMC to looped peptides of the protein M of SARS-CoV Urbani / Binding of Control Serum Blood-Bank to Looped peptides of the protein M of SARS-CoV Urbani: unit not given here
[2] = tested on: rabbit serum obtained by immunizing a rabbit with the SARS-CoV strain Frankfurt 1; format: binding; set-up: Binding of a rabbit serum to linear peptides / Binding of a rabbit serum to looped peptides / Rabbit serum linear peptides / Rabbit serum looped peptides / Binding of a rabbit serum to linear peptides of protein N of SARS-CoV Urbani (Rabbit serum linear peptides) / Binding of a rabbit serum to looped/cyclic peptides of protein N of SARS-CoV Urbani (Rabbit serum looped peptides): unit not given here
[3] = tested on: antibodies in sera from SARS patients (sera 1a, 1b, 2, 6, 37, 62, London, SARS-yellow, SARS-green); format: binding, human; set-up: Binding of serum 6 to linear peptides of protein X1 of SARS-CoV Urbani / Binding of serum 37 to linear peptides of protein X1 of SARS-CoV Urbani / Binding of serum 6 to looped/cyclic peptide (PEPSCAN-ELISA) / Binding of serum 37 to looped/cyclic peptide (PEPSCAN-ELISA) / Binding of serum 37 to looped/cyclic peptides of protein X1 of SARS-CoV Urbani / Binding of serum 6 to linear peptides of protein X2 / Binding of serum 37 to linear peptides of protein X2 / Binding of serum 37 to looped/cyclic peptides of protein X2 of SARS-CoV Urbani / Binding of serum 6 to linear peptides of protein M of SARS-CoV Urbani / Binding of serum 37 to linear peptides of protein M of SARS-CoV Urbani / Binding of serum 6 to looped/cyclic peptides of protein M of SARS-CoV Urbani / Binding of serum 37 to looped/cyclic peptides of protein M of SARS-CoV Urbani / Binding of serum 6 to linear peptides of protein X3 of SARS-CoV Urbani / Binding of serum 37 to linear peptides of protein X3 of SARS-CoV Urbani / Binding of serum 37 to looped/cyclic peptides of protein X3 of SARS-CoV Urbani / Binding of serum 6 to linear peptides of protein X4 of SARS-CoV Urbani / Binding of serum 37 to linear peptides of protein X4 of SARS-CoV Urbani / Binding of serum 37 to looped/cyclic peptides of protein X4 of SARS-CoV Urbani / Binding of serum 6 to linear peptides of protein X5 of SARS-CoV Urbani / Binding of serum 37 to linear peptides of protein X5 of SARS-CoV Urbani / Binding of serum 37 to looped/cyclic peptides of protein X5 of SARS-CoV Urbani / Binding of serum 6 to linear peptides of protein N of SARS-CoV Urbani / Binding of serum 37 to linear peptides of protein N of SARS-CoV Urbani / Binding of serum 6 to linear peptide (PEPSCAN-ELISA) / Binding of serum 1a to looped/cyclic peptides of protein N of SARS-CoV Urbani / Binding of serum 1b to looped/cyclic peptides of protein N of SARS-CoV Urbani / Binding of serum 2 to looped/cyclic peptides of protein N of SARS-CoV Urbani / Binding of serum 6 to looped/cyclic peptides of protein N of SARS-CoV Urbani / Binding of serum 37 to looped/cyclic peptides of protein N of SARS-CoV Urbani / Binding of serum 62 to looped/cyclic peptides of protein N of SARS-CoV Urbani / Binding of serum London to looped/cyclic peptides of protein N of SARS-CoV Urbani / Binding of serum SARS-green to looped/cyclic peptides of protein N of SARS-CoV Urbani: unit not given here

TTDTGIENATFFIFN
Binding of Control Serum Blood-Bank to Looped peptides [1]: 0.8
Binding of Control serum Blood-bank to linear peptides [1]: 0.6
Binding of Control serum LUMC to linear peptides [1]: 1.0
Binding of Control serum LUMC to looped peptides [1]: 0.8
Binding of a rabbit serum to linear peptides [2]: 0.1
Binding of a rabbit serum to looped peptides [2]: 0.5
Binding of serum 1a to linear peptides of protein X1 of SARS-CoV Urbani [3]: 0.8
Binding of serum 1a to looped/cyclic peptides of protein X1 of SARS-CoV Urbani [3]: 0.6
Binding of serum 1b to linear peptides of protein X1 of SARS-CoV Urbani [3]: 0.5
Binding of serum 1b to looped/cyclic peptides of protein X1 of SARS-CoV Urbani [3]: 0.6
Binding of serum 2 to linear peptides of protein X1 of SARS-CoV Urbani [3]: 0.6
Binding of serum 2 to looped/cyclic peptides of protein X1 of SARS-CoV Urbani [3]: 0.7
Binding of serum 6 to linear peptides of protein X1 of SARS-CoV Urbani [3]: 0.5
Binding of serum 6 to looped/cyclic peptides of protein X1 of SARS-CoV Urbani [3]: 0.6
Binding of serum 37 to linear peptides of protein X1 of SARS-CoV Urbani [3]: 0.6
Binding of serum 37 to looped/cyclic peptides of protein X1 of SARS-CoV Urbani [3]: 1.0
Binding of serum 62 to linear peptides of protein X1 of SARS-CoV Urbani [3]: 0.5
Binding of serum 62 to looped/cyclic peptides of protein X1 of SARS-CoV Urbani [3]: 0.9
Binding of serum London to linear peptides of protein X1 of SARS-CoV Urbani [3]: 0.3
Binding of serum London to looped/cyclic peptides of protein X1 of SARS-CoV Urbani [3]: 0.3
Binding of serum SARS-green to linear peptides of protein X1 of SARS-CoV Urbani [3]: 0.4
Binding of serum SARS-green to looped/cyclic peptides of protein X1 of SARS-CoV Urbani [3]: 0.6
Binding of serum SARS-yellow to linear peptides of protein X1 of SARS-CoV Urbani [3]: 0.5
Binding of serum SARS-yellow to looped/cyclic peptides of protein X1 of SARS-CoV Urbani [3]: 0.5

EEVQQELYSPLFLIV
Binding of Control Serum Blood-Bank to Looped peptides [1]: 1.0
Binding of Control serum Blood-bank to linear peptides [1]: 0.6
Binding of Control serum LUMC to linear peptides [1]: 0.6
Binding of Control serum LUMC to looped peptides [1]: 1.0
Rabbit serum linear peptides [2]: 0.4
Rabbit serum looped peptides [2]: 0.5
Binding of serum 1a to linear peptides of protein X4 of SARS-CoV Urbani [3]: 0.7
Binding of serum 1b to linear peptides of protein X4 of SARS-CoV Urbani [3]: 0.6
Binding of serum 2 to linear peptides of protein X4 of SARS-CoV Urbani [3]: 0.6
Binding of serum 6 to linear peptides of protein X4 of SARS-CoV Urbani [3]: 0.6
Binding of serum 37 to linear peptides of protein X4 of SARS-CoV Urbani [3]: 0.7
Binding of serum 62 to linear peptides of protein X4 of SARS-CoV Urbani [3]: 0.8
Binding of serum London to linear peptides of protein X4 of SARS-CoV Urbani [3]: 0.7
Binding of serum SARS-green to linear peptides of protein X4 of SARS-CoV Urbani [3]: 0.7
Binding of serum SARS-yellow to linear peptides of protein X4 of SARS-CoV Urbani [3]: 0.8
Recognition of the peptide by sera of SARS-CoV infected individuals, and form (linear, looped/cyclic) in which it is recognized [3]: recognized in looped/cyclic form

MCLKILVRYNTRGNT
Binding of Control Serum Blood-Bank to Looped peptides [1]: 0.4
Binding of Control serum Blood-bank to linear peptides [1]: 0.8
Binding of Control serum LUMC to linear peptides [1]: 0.6
Binding of Control serum LUMC to looped peptides [1]: 0.5
Rabbit serum linear peptides [2]: 0.7
Rabbit serum looped peptides [2]: 0.5
Binding of serum 1a to linear peptides of protein X5 of SARS-CoV Urbani [3]: 0.8
Binding of serum 1a to looped/cyclic peptides of protein X5 of SARS-CoV Urbani [3]: 0.5
Binding of serum 1b to linear peptides of protein X5 of SARS-CoV Urbani [3]: 0.6
Binding of serum 1b to looped/cyclic peptides of protein X5 of SARS-CoV Urbani [3]: 0.3
Binding of serum 2 to linear peptides of protein X5 of SARS-CoV Urbani [3]: 0.8
Binding of serum 2 to looped/cyclic peptides of protein X5 of SARS-CoV Urbani [3]: 0.5
Binding of serum 6 to linear peptides of protein X5 of SARS-CoV Urbani [3]: 1.4
Binding of serum 6 to looped/cyclic peptides of protein X5 of SARS-CoV Urbani [3]: 0.4
Binding of serum 37 to linear peptides of protein X5 of SARS-CoV Urbani [3]: 0.9
Binding of serum 37 to looped/cyclic peptides of protein X5 of SARS-CoV Urbani [3]: 0.5
Binding of serum 62 to linear peptides of protein X5 of SARS-CoV Urbani [3]: 0.9
Binding of serum 62 to looped/cyclic peptides of protein X5 of SARS-CoV Urbani [3]: 0.7
Binding of serum London to linear peptides of protein X5 of SARS-CoV Urbani [3]: 0.8
Binding of serum London to looped/cyclic peptides of protein X5 of SARS-CoV Urbani [3]: 0.4
Binding of serum SARS-green to linear peptides of protein X5 of SARS-CoV Urbani [3]: 0.9
Binding of serum SARS-green to looped/cyclic peptides of protein X5 of SARS-CoV Urbani [3]: 0.2
Binding of serum SARS-yellow to linear peptides of protein X5 of SARS-CoV Urbani [3]: 0.7
Binding of serum SARS-yellow to looped/cyclic peptides of protein X5 of SARS-CoV Urbani [3]: 0.8
